Measured values reported in ChEMBL document CHEMBL5532643, “Design and synthesis of etrasimod derivatives as potent antibacterial agents against Gram-positive bacteria” (Eur J Med Chem, 2024).
Values after ≈ are worked out from the molar mass of the structure shown. Active and inactive are the calls of the source. The calls are words filed in the database; no cut-off is given here.

Experiments:
Acinetobacter baumannii = assay: Antibacterial activity against Acinetobacter baumannii NCTC 13423 assessed as reduction in bacterial growth incubated for 18 to 20 hrs by broth microdilution assay; type: functional; details: time 18-20 hrs
Staphylococcus aureus [1] = assay: Antimicrobial activity against Staphylococcus aureus ATCC 25923 infected in Caenorhabditis elegans AU37 assessed as reduction in number of viable bacteria at 20 uM incubated for 18 hrs; type: functional, organism-based
Staphylococcus aureus [2] = assay: Synergistic antibacterial activity against Staphylococcus aureus ATCC 25923 assessed as fractional inhibitory concentration index incubated for 18 to 20 hrs in presence of ciprofloxacin by checkboard assay; type: functional; details: time 18-20 hrs
Staphylococcus aureus [3] = assay: Antibiofilm activity against Staphylococcus aureus ATCC 25923 assessed as inhibition of biofilm biomass at 100 uM incubated for 18 to 20 hrs by crystal violet staining based assay; type: functional; details: time 18-20 hrs
Staphylococcus aureus [4] = assay: Antibacterial activity against Staphylococcus aureus ATCC 43300 assessed as reduction in bacterial growth incubated for 18 to 20 hrs by broth microdilution assay; type: functional; details: time 18-20 hrs
Staphylococcus aureus [5] = assay: Synergistic antibacterial activity against methicillin-resistant Staphylococcus aureus ATCC 43300 assessed as linezolid MIC incubated for 18 to 20 hrs by checkboard assay; type: functional; details: time 18-20 hrs
[6] = test system: Staphylococcus epidermidis; assay: Antibacterial activity against […] Staphylococcus epidermidis RP62A assessed as reduction in bacterial growth incubated for 18 to 20 hrs by broth microdilution assay; type: functional; details: time 18-20 hrs
Enterococcus faecalis [7] = assay: Synergistic antibacterial activity against Enterococcus faecalis ATCC 29212 assessed as fractional inhibitory concentration index incubated for 18 to 20 hrs in presence of linezolid by checkboard assay; type: functional; details: time 18-20 hrs
Enterococcus faecalis [8] = assay: Antibacterial activity against vancomycin-resistant Enterococcus faecalis ATCC 51575 assessed as reduction in bacterial growth incubated for 18 to 20 hrs by broth microdilution assay; type: functional; details: time 18-20 hrs
Enterococcus faecalis [9] = assay: Synergistic antibacterial activity against Enterococcus faecalis ATCC 29212 assessed as fractional inhibitory concentration index incubated for 18 to 20 hrs in presence of ciprofloxacin by checkboard assay; type: functional; details: time 18-20 hrs
Staphylococcus aureus [10] = assay: Synergistic antibacterial activity against Staphylococcus aureus ATCC 25923 assessed as gentamicin MIC incubated for 18 to 20 hrs by checkboard assay; type: functional; details: time 18-20 hrs
Staphylococcus aureus [11] = assay: Synergistic antibacterial activity against methicillin-resistant Staphylococcus aureus ATCC 43300 incubated for 18 to 20 hrs in presence of ciprofloxacin by checkboard assay; type: functional; details: time 18-20 hrs
Staphylococcus aureus [12] = assay: Bactericidal activity against Staphylococcus aureus ATCC 25923 assessed as reduction in viable bacterial count incubated for 2 hrs by time-kill assay; type: functional, organism-based
Staphylococcus aureus [13] = assay: Synergistic antibacterial activity against methicillin-resistant Staphylococcus aureus ATCC 43300 assessed as vancomycin MIC incubated for 18 to 20 hrs by checkboard assay; type: functional; details: time 18-20 hrs
Cell membrane = assay: Induction of cell membrane damage in Staphylococcus aureus ATCC 25923 at 8 times MIC incubated for 2 hrs by scanning electron microscopic analysis; type: cell membranes
Staphylococcus aureus [14] = assay: Synergistic antibacterial activity against Staphylococcus aureus ATCC 25923 incubated for 18 to 20 hrs in presence of ciprofloxacin by checkboard assay; type: functional; details: time 18-20 hrs
Staphylococcus aureus [15] = assay: Bactericidal activity against Staphylococcus aureus ATCC 25923 assessed as log reduction in colony forming units at 0.5 to 8 times MIC measured after 6 hrs by time kill-assay; type: functional
[16] = Hemolytic activity in mouse RBC assessed as hemolysis at 125 uM incubated for 1 hr; type: toxicity, cell-based, Erythrocyte; details: mouse red blood cells (erythrocytes), read-out: Activity
Staphylococcus aureus [17] = assay: Drug resistance, ratio of MIC for methicillin-resistant Staphylococcus aureus after 20 days exposure to MIC for methicillin-resistant Staphylococcus aureus during first exposure; type: functional; details: time 20 day
Staphylococcus aureus [18] = assay: Synergistic antibacterial activity against Staphylococcus aureus ATCC 25923 incubated for 18 to 20 hrs in presence of vancomycin by checkboard assay; type: functional; details: time 18-20 hrs
A549 [19] = assay: Cytotoxicity against human A549 cells assessed as reduction in cell viability incubated for 24 hrs by resazurin staining based analysis; type: functional
Enterococcus faecalis [20] = assay: Antibacterial activity against Enterococcus faecalis ATCC 29212 assessed as reduction in bacterial growth incubated for 18 to 20 hrs by broth microdilution assay; type: functional; details: time 18-20 hrs
Pseudomonas aeruginosa = assay: Antibacterial activity against Pseudomonas aeruginosa ATCC 15442 assessed as reduction in bacterial growth incubated for 18 to 20 hrs by broth microdilution assay; type: functional; details: time 18-20 hrs
A549 [21] = assay: Cytotoxicity against human A549 cells assessed as reduction in cell viability at 100 uM incubated for 24 hrs by resazurin staining based analysis relative to control; type: functional
Staphylococcus aureus [22] = assay: Antibacterial activity against […] Staphylococcus aureus ATCC 43300 assessed as reduction in bacterial growth incubated for 18 to 20 hrs by broth microdilution assay; type: functional; details: time 18-20 hrs
Staphylococcus aureus [23] = assay: Bactericidal activity against Staphylococcus aureus ATCC 25923 assessed as log reduction in colony forming units at 4 to 8 times MIC measured after 1 to 2 hrs by time kill-assay; type: functional; details: time 1-2 hrs
Staphylococcus aureus [24] = assay: Antimicrobial activity against methicillin-resistant Staphylococcus aureus ATCC 43300 infected in Caenorhabditis elegans AU37 assessed as reduction in bacterial burden at 20 uM incubated for 18 hrs; type: functional; set-up: scale not given: the % may be the effect or the level left
Enterococcus faecalis [25] = assay: Bactericidal activity against Enterococcus faecalis ATCC 29212 assessed as reduction in bacterial growth at 0.5 to 8 times MIC incubated for 24 hrs by time-kill assay; type: functional
Enterococcus faecium = assay: Antibacterial activity against vancomycin-resistant Enterococcus faecium ATCC 700221 assessed as reduction in bacterial growth incubated for 18 to 20 hrs by broth microdilution assay; type: functional; details: time 18-20 hrs
[26] = Selectivity index, ratio of CC50 for cytotoxicity against human THP-1 cells assessed as reduction in cell viability to MIC for antibacterial activity against methicillin-resistant Staphylococcus aureus assessed as reduction in bacterial growth; type: toxicity, cell-based; details: read-out: Selectivity Index
Staphylococcus aureus [27] = assay: Synergistic antibacterial activity against Staphylococcus aureus ATCC 25923 incubated for 18 to 20 hrs in presence of linezolid by checkboard assay; type: functional; details: time 18-20 hrs
Staphylococcus aureus [28] = assay: Bactericidal activity against Staphylococcus aureus ATCC 25923 at 4 times MIC measured after 6 hrs by time kill-assay; type: functional, organism-based
Enterococcus faecalis [29] = assay: Synergistic antibacterial activity against Enterococcus faecalis ATCC 29212 incubated for 18 to 20 hrs in presence of linezolid by checkboard assay; type: functional; details: time 18-20 hrs
Enterococcus faecalis [30] = assay: Synergistic antibacterial activity against Enterococcus faecalis ATCC 29212 assessed as fractional inhibitory concentration index incubated for 18 to 20 hrs in presence of gentamicin by checkboard assay; type: functional; details: time 18-20 hrs
Staphylococcus aureus [31] = assay: Synergistic antibacterial activity against methicillin-resistant Staphylococcus aureus ATCC 43300 assessed as fractional inhibitory concentration index incubated for 18 to 20 hrs in presence of ciprofloxacin by checkboard assay; type: functional; details: time 18-20 hrs
Staphylococcus aureus [32] = assay: Antibiofilm activity against Staphylococcus aureus ATCC 25923 assessed as inhibition of biofilm viability at 100 uM incubated for 18 to 20 hrs by resazurin staining based assay; type: functional; details: time 18-20 hrs
Staphylococcus aureus [33] = assay: Synergistic antibacterial activity against Staphylococcus aureus ATCC 25923 assessed as fractional inhibitory concentration index incubated for 18 to 20 hrs in presence of linezolid by checkboard assay; type: functional; details: time 18-20 hrs
Staphylococcus aureus [34] = assay: Drug resistance, ratio of MIC for Staphylococcus aureus ATCC 25923 after 20 days exposure to MIC for Staphylococcus aureus ATCC 25923 during first exposure; type: functional; details: time 20 day
Enterococcus faecalis [35] = assay: Synergistic antibacterial activity against Enterococcus faecalis ATCC 29212 assessed as fractional inhibitory concentration index incubated for 18 to 20 hrs in presence of vancomycin by checkboard assay; type: functional; details: time 18-20 hrs

For `O=C(O)c1cc2cc(OCc3ccc(C4CCCCC4)c(C(F)(F)F)c3)ccc2[nH]1`, the MIC (Acinetobacter baumannii) was over 200 µM, the Activity (Staphylococcus aureus [1]) was “Active” and the “fractional inhibitory concentration index (FICI)” value (Staphylococcus aureus [2]) was 0.625. For the same molecule, the inhibition at 100 µM (Staphylococcus aureus [3]) was over 90%, the MIC (Staphylococcus aureus [4]) was 2.5 µM (≈ 1.04 µg/mL) and the MIC (Staphylococcus aureus [5]) was 5 µM. For the same molecule, the MIC [6] was 2.5 µM (≈ 1.04 µg/mL), the “fractional inhibitory concentration index (FICI)” value (Enterococcus faecalis [7]) was 2 and the MIC (Enterococcus faecalis [8]) was 10 µM (≈ 4.17 µg/mL). The “fractional inhibitory concentration index (FICI)” value (Enterococcus faecalis [9]) was 0.75, the MIC (Staphylococcus aureus [10]) was 0.5 µg/mL and the MIC (Staphylococcus aureus [11]) was 1.25 µM. The Activity (Staphylococcus aureus [12]) was “Dose-Dependent Effect”, the MIC (Staphylococcus aureus [13]) was 1.25 µM and the Activity (Cell membrane) was “inactive”. The MIC (Staphylococcus aureus [14]) was 2.5 µM, the “log(activity)” value (Staphylococcus aureus [15]) was over 3 and the hemolysis at 1 h, 125 µM [16] was 57%. It also gave a Ratio (Staphylococcus aureus [17]) of 3, an MIC (Staphylococcus aureus [18]) of 2.2 µM and a CC50 (A549 [19]) of over 100 µM. For the same molecule, the MIC (Enterococcus faecalis [20]) was 5 µM (≈ 2.09 µg/mL), the MIC (Pseudomonas aeruginosa) was over 200 µM and the Activity (A549 [21]) was about 20%. For the same molecule, the MIC (Staphylococcus aureus [22]) was 2.5 µM (≈ 1.04 µg/mL), the “log(activity)” value (Staphylococcus aureus [23]) was over 3 and the Activity (Staphylococcus aureus [24]) was 88%. The MBC (Enterococcus faecalis [25]) was 5 µM (≈ 2.09 µg/mL), the MIC (Enterococcus faecium) was 5 µM (≈ 2.09 µg/mL) and the selectivity ratio [26] was over 12. For the same molecule, the MIC (Staphylococcus aureus [27]) was 2.5 µM, the Activity (Staphylococcus aureus [28]) was “Active” and the MIC (Enterococcus faecalis [29]) was 5 µM. The “fractional inhibitory concentration index (FICI)” value (Enterococcus faecalis [30]) was 0.375, the “fractional inhibitory concentration index (FICI)” value (Staphylococcus aureus [31]) was 1 and the inhibition at 100 µM (Staphylococcus aureus [32]) was over 90%. For the same molecule, the “fractional inhibitory concentration index (FICI)” value (Staphylococcus aureus [33]) was 1, the Ratio (Staphylococcus aureus [34]) was 3 and the “fractional inhibitory concentration index (FICI)” value (Enterococcus faecalis [35]) was 2.
